Assays:
Test in all cases: OD600 after 10 h growth (baseline-subtracted); higher = more bacterial growth (less inhibition)
[1] = tested on: Staphylococcus aureus Newman
Method: (§1)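 Broth microdilution growth assay in Mueller Hinton broth, 100 µL in 96-well plates, inoculated 1:200 from OD600 0.1 overnight cultures by pinning, 37 °C with shaking at 800 rpm, 1:2 serial dilutions from 128 µg/mL (64 µg/mL for Ebastine). The read-out is OD600 after 10 h; curves were baseline-corrected by subtracting the minimum of the 2nd-4th measurements. Three biological replicates, with water and DMSO no-compound controls.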

Escherichia coli IAI1 = tested on: Escherichia coli IAI1
Method: as §1

[2] = tested on: Pseudomonas aeruginosa PA14
Method: as §1

[3] = tested on: Klebsiella pneumoniae MKP103
Method: as §1

[4] = tested on: Escherichia coli CFT073 (UPEC)
Method: as §1

CC(=O)N[C@H](Cc1ccc2ccccc2c1)C(=O)N[C@H](Cc1ccc(Cl)cc1)C(=O)N[C@H](Cc1cccnc1)C(=O)N[C@@H](CO)C(=O)N[C@@H](Cc1ccc(O)cc1)C(=O)N[C@H](CCCNC(N)=O)C(=O)N[C@@H](CC(C)C)C(=O)N[C@@H](CCCNC(=N)N)C(=O)N1CCC[C@H]1C(=O)N[C@H](C)C(N)=O [Cetrorelix]
OD600 after 10 h growth
Conditions	Escherichia coli IAI1	[1]	[2]	[3]	[4]
0.1 µg/mL	0.865	1.08	0.741	0.674	0.804
0.2 µg/mL	0.872	1.08	0.742	0.679	0.832
0.5 µg/mL	0.829	1.08	0.742	0.687	0.8273
1 µg/mL	0.828	1.1	0.727	0.693	0.812
2 µg/mL	0.831	1.1	0.726	0.702	0.827
4 µg/mL	0.821	1.11	0.736	0.701	0.83
8 µg/mL	0.831	1.11	0.736	0.707	0.806
16 µg/mL	0.837	1.117	0.754	0.712	0.81
32 µg/mL	0.814	1.117	0.763	0.717	0.792
64 µg/mL	0.8	1.09	0.749	0.69	0.807
128 µg/mL	0.786	1.05	0.756	0.679	0.77

CC(C)(C)c1ccc(C(=O)CCCN2CCC(OC(c3ccccc3)c3ccccc3)CC2)cc1 [Ebastine]
OD600 after 10 h growth
Conditions	Escherichia coli IAI1	[1]	[2]	[3]	[4]
0.05 µg/mL	0.808	1.11	0.75	0.665	0.78
0.1 µg/mL	0.807	1.08	0.752	0.667	0.781
0.2 µg/mL	0.796	1.14	0.742	0.666	0.783
0.5 µg/mL	0.793	1.06	0.744	0.666	0.789
1 µg/mL	0.812	1.15	0.754	0.671	0.798
2 µg/mL	0.816	1.1	0.842	0.681	0.792
4 µg/mL	0.808	1.05	0.749	0.787	0.797
8 µg/mL	0.81	1.03	0.743	0.678	0.803
16 µg/mL	0.848	0.987	0.725	0.661	0.792
32 µg/mL	0.778	0.991	0.697	0.647	0.775
64 µg/mL	0.754	1.02	0.603	0.613	0.755

COc1cc2c(cc1Cc1cccc(Cl)c1F)c(=O)c(C(=O)O)cn2[C@H](CO)C(C)C [Elvitegravir]
OD600 after 10 h growth
Conditions	Escherichia coli IAI1	[1]	[2]	[3]	[4]
0.1 µg/mL	0.803	1.07	0.752	0.671	0.782
0.2 µg/mL	0.846	1.07	0.747	0.666	0.768
0.5 µg/mL	0.816	1.08	0.751	0.672	0.793
1 µg/mL	0.808	1.08	0.748	0.664	0.81
2 µg/mL	0.82	1.08	0.761	0.671	0.812
4 µg/mL	0.818	0.309	0.756	0.675	0.804
8 µg/mL	0.834	0.0327	0.758	0.681	0.793
16 µg/mL	0.836	0.0197	0.743	0.675	0.807
32 µg/mL	0.812	0.00533	0.689	0.651	0.806
64 µg/mL	0.784	0	0.661	0.625	0.766
128 µg/mL	0.771	0.013	0.588	0.596	0.733

Source: the supplement of paper PMC11986102
